Experimental data: patent US9763445B2, “Safened herbicidal compositions comprising a pyridine carboxylic acid herbicide” (Dow AgroSciences, LLC, priority 2014, dated 2017)

How the values were obtained:
[1] = tested on: spring barley (HORVS); experiment: Postemergence greenhouse trial, % visual injury on spring barley; assay type: in vivo, Hordeum vulgare; conditions: alone
Procedure, shortened: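 Greenhouse crops at second to third true leaf stage sprayed postemergence at 187 L/ha with herbicide (g ae/ha) plus safener (g ai/ha) in acetone/DMSO diluted into 1.5% v/v Agri-dex. Injury scored visually versus solvent-blank controls after 20-22 d, 0 (none) to 100% (complete kill); expected mixture effects by Colby's equation.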

[2] = tested on: purple deadnettle (LAMPU); experiment: Postemergence greenhouse trial, % visual injury on purple deadnettle; assay type: in vivo, Lamium purpureum
Procedure, shortened: (§1)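 Herbicide rates g ae/ha, safener (cloquintocet-mexyl) rates g ai/ha; spray carrier 1.5% v/v crop oil concentrate, 187 L/ha, 2nd–3rd leaf stage. Rating: visual % injury at 20-22 d.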

[3] = tested on: thistle (CIRAR); experiment: Postemergence greenhouse trial, % visual injury on thistle; assay type: in vivo, Cirsium arvense; conditions: for % visual injury, Ob: CIRAR
Procedure, shortened: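 Visual injury, 0 (none) to 100 (complete kill), rated 20-22 d after overhead track-sprayer application at 187 L/ha; Colby's equation gave expected mixture responses. Herbicide (g ae/ha) and cloquintocet-mexyl safener (g ai/ha) diluted in aqueous 1.5% v/v Agri-dex, applied to weeds at 2–3 true leaves.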

[4] = tested on: Russian thistle (SASKR); experiment: Postemergence greenhouse trial, % visual injury on Russian thistle; assay type: in vivo, Salsola kali
[5] = tested on: bird's-eye speedwell (VERPE); experiment: Postemergence greenhouse trial, % visual injury on bird's-eye speedwell; assay type: in vivo, Veronica persica
Procedure, shortened: as §1

CCCCCC(C)OC(=O)COc1ccc(Cl)c2cccnc12 (stereo not drawn) [CQC-m, cloquintocet-mexyl, reference compound]
0%: % visual injury, Ob ([1]; 40 g/ha) | % visual injury, Ob ([1]; 70 g/ha) | % visual injury, Ob ([1]; 80 g/ha) | % visual injury, Ob ([2]; LAMPU, compound 0, CQC-m 4.375 g/ha) | % visual injury, Ob ([2]; LAMPU, compound 0, CQC-m 8.75 g/ha) | % visual injury, Ob ([2]; LAMPU, compound 0, CQC-m 17.5 g/ha) | % visual injury, Ob ([2]; LAMPU, compound 0, CQC-m 35 g/ha) | % visual injury, Ob ([2]; LAMPU, compound 0, CQC-m 70 g/ha) | % visual injury, Ob ([2]; LAMPU, compound 0 g/ha, CQC-m 4.375 g/ha) | % visual injury, Ob ([2]; LAMPU, compound 0 g/ha, CQC-m 8.75 g/ha) | % visual injury, Ob ([2]; LAMPU, compound 0 g/ha, CQC-m 17.5 g/ha) | % visual injury, Ob ([2]; LAMPU, compound 0 g/ha, CQC-m 35 g/ha) | % visual injury, Ob ([2]; LAMPU, compound 0 g/ha, CQC-m 70 g/ha) | % visual injury, Ob ([2]; alone, 4.375 g/ha) | % visual injury, Ob ([2]; alone, 8.75 g/ha) | % visual injury, Ob ([2]; alone, 17.5 g/ha) | % visual injury, Ob ([2]; alone, 35 g/ha) | % visual injury, Ob ([2]; alone, 70 g/ha) | % visual injury, Ob ([3]; 4.375 g/ha, applied alone) | % visual injury, Ob ([3]; 8.75 g/ha, applied alone) | % visual injury, Ob ([3]; 17.5 g/ha, applied alone) | % visual injury, Ob ([3]; 35 g/ha, applied alone) | % visual injury, Ob ([3]; 70 g/ha, applied alone) | % visual injury, Ob ([3]; compound 0, CQC-m 4.375 g/ha) | % visual injury, Ob ([3]; compound 0, CQC-m 8.75 g/ha) | % visual injury, Ob ([3]; compound 0, CQC-m 17.5 g/ha) | % visual injury, Ob ([3]; compound 0, CQC-m 35 g/ha) | % visual injury, Ob ([3]; compound 0, CQC-m 70 g/ha) | pest or weed control at 4.375 g/ha ([3]; Cirsium arvense, post-emergence, alone, 4.375 g/ha, read-out: % visual injury, Ob) | pest or weed control at 8.75 g/ha ([3]; Cirsium arvense, post-emergence, alone, 8.75 g/ha, read-out: % visual injury, Ob) | pest or weed control at 17.5 g/ha ([3]; Cirsium arvense, post-emergence, alone, 17.5 g/ha, read-out: % visual injury, Ob) | pest or weed control at 35 g/ha ([3]; Cirsium arvense, post-emergence, alone, 35 g/ha, read-out: % visual injury, Ob) | pest or weed control at 70 g/ha ([3]; Cirsium arvense, post-emergence, alone, 70 g/ha, read-out: % visual injury, Ob) | % visual injury, Ob ([4]; SASKR, 4.375 g/ha, applied alone) | % visual injury, Ob ([4]; SASKR, 8.75 g/ha, applied alone) | % visual injury, Ob ([4]; SASKR, 17.5 g/ha, applied alone) | % visual injury, Ob ([4]; SASKR, 35 g/ha, applied alone) | % visual injury, Ob ([4]; SASKR, 70 g/ha, applied alone) | % visual injury, Ob ([4]; SASKR, compound 0, CQC-m 4.375 g/ha) | % visual injury, Ob ([4]; SASKR, compound 0, CQC-m 8.75 g/ha) | % visual injury, Ob ([4]; SASKR, compound 0, CQC-m 17.5 g/ha) | % visual injury, Ob ([4]; SASKR, compound 0, CQC-m 35 g/ha) | % visual injury, Ob ([4]; SASKR, compound 0, CQC-m 70 g/ha) | % visual injury, Ob ([4]; SASKR, compound 0 g/ha, CQC-m 4.375 g/ha) | % visual injury, Ob ([4]; SASKR, compound 0 g/ha, CQC-m 8.75 g/ha) | % visual injury, Ob ([4]; SASKR, compound 0 g/ha, CQC-m 17.5 g/ha) | % visual injury, Ob ([4]; SASKR, compound 0 g/ha, CQC-m 35 g/ha) | % visual injury, Ob ([4]; SASKR, compound 0 g/ha, CQC-m 70 g/ha) | % visual injury, observed (Ob) ([4]; SASKR, compound 8 0 + CQC-m 4.375 g/ha) | % visual injury, observed (Ob) ([4]; SASKR, compound 8 0 + CQC-m 8.75 g/ha) | % visual injury, observed (Ob) ([4]; SASKR, compound 8 0 + CQC-m 17.5 g/ha) | % visual injury, observed (Ob) ([4]; SASKR, compound 8 0 + CQC-m 35 g/ha) | % visual injury, observed (Ob) ([4]; SASKR, compound 8 0 + CQC-m 70 g/ha) | % visual injury, Ob ([4]; alone, 4.375 g/ha) | % visual injury, Ob ([4]; alone, 8.75 g/ha) | % visual injury, Ob ([4]; alone, 17.5 g/ha) | % visual injury, Ob ([4]; alone, 35 g/ha) | % visual injury, Ob ([4]; alone, 70 g/ha) | % visual injury, Ob ([5]; VERPE, compound 0, CQC-m 4.375 g/ha) | % visual injury, Ob ([5]; VERPE, compound 0, CQC-m 8.75 g/ha) | % visual injury, Ob ([5]; VERPE, compound 0, CQC-m 17.5 g/ha) | % visual injury, Ob ([5]; VERPE, compound 0, CQC-m 35 g/ha) | % visual injury, Ob ([5]; VERPE, compound 0, CQC-m 70 g/ha) | % visual injury, Ob ([5]; VERPE, compound 0 g/ha, CQC-m 4.375 g/ha) | % visual injury, Ob ([5]; VERPE, compound 0 g/ha, CQC-m 8.75 g/ha) | % visual injury, Ob ([5]; VERPE, compound 0 g/ha, CQC-m 17.5 g/ha) | % visual injury, Ob ([5]; VERPE, compound 0 g/ha, CQC-m 35 g/ha) | % visual injury, Ob ([5]; VERPE, compound 0 g/ha, CQC-m 70 g/ha) | % visual injury, observed (Ob) ([5]; VERPE, compound 8 0 + CQC-m 4.375 g/ha) | % visual injury, observed (Ob) ([5]; VERPE, compound 8 0 + CQC-m 8.75 g/ha) | % visual injury, observed (Ob) ([5]; VERPE, compound 8 0 + CQC-m 17.5 g/ha) | % visual injury, observed (Ob) ([5]; VERPE, compound 8 0 + CQC-m 35 g/ha) | % visual injury, observed (Ob) ([5]; VERPE, compound 8 0 + CQC-m 70 g/ha) | % visual injury, Ob ([5]; alone, 4.375 g/ha) | % visual injury, Ob ([5]; alone, 8.75 g/ha) | % visual injury, Ob ([5]; alone, 17.5 g/ha) | % visual injury, Ob ([5]; alone, 35 g/ha) | % visual injury, Ob ([5]; alone, 70 g/ha)
